For assay [1], the system named is IRF3-driven Luc expression in THP-1 Dual cells. As to the kind of experiment: THP-1 Dual IRF3-Luc reporter assay. It is filed as cell-based, human. The note with it: Homo sapiens; THP1-dual cells; read-out: Cellular IRF3-Luc IC50. Here is the method:
(§1) IFN induction in human monocyte cell lines: The human monocyte cell line THP-1 gives a robust cGAS/STING-dependent type I IFN response and has been used extensively for studies on the pathway. Typically, cells are stimulated by transfection with dsDNA and gene expression is assessed using an ELISA for IFNβ, a reporter gene assay, and/or cGAS/STING pathway markers such as STING phosphorylation. These assays were validated using the TBK1 inhibitor, BX-795, which acts downstream of cGAS/STING, as a probe; THP-1 Dual cells (Invivogen, San Diego) are used as the reporter cell line for routine compound testing (FIG. 5A). These assays were optimized, including equalizing responses with transfected DNA and cGAMP and comparing responses between undifferentiated cells and cells that have been differentiated to macrophages (which show little difference). […] Stimulation of THP-1 Dual cells with damage-associated molecular pattern molecules (DAMPs) that act through pattern recognition receptors other than cGAS provides another way to confirm the specificity of putative cGAS inhibitors.
(A reporter such as luciferase makes a cellular process visible.)

Assay [2] deals with NFκB-driven SEAP expression in THP-1 Dual cells. Briefly: THP-1 Dual NFκB-SEAP reporter assay. It is filed as cell-based, human. Conditions: Homo sapiens; THP1-dual cells; read-out: Cellular NFκB-SEAP IC50. The protocol:
as §1

In assay [3] the test system is IFNβ expression in THP-1 cells. Briefly: IFNβ ELISA in THP-1 cells. It is filed as cell-based, human. Here is the method: as §1
On the technique in general: An ELISA detects its analyte on a solid surface through an enzyme-linked reagent.

Assay [4] deals with interferon-sensitive gene (ISG) expression in THP1-dual cells. As to the kind of experiment: ISG mRNA expression by RT-PCR in THP1-dual cells. The assay is classed as cell-based, human. The note with it: 24 hours, normalized to β-actin. The protocol: FIG. 6A illustrates activity of IFNβ expression of the compounds of disclosure. FIG. 6B illustrates inhibition of reporter genes from cGAS/STING-driven promoters of compound 28 in THP1-dual cells. FIG. 6C illustrates the ISG mRNA expression of compound 28 in THP1-dual cells. Compound 28 in concentration of 200 μM was evaluated after 24 hours. The results were normalized to β-actin.

The target of another assay is cGAS (Homo sapiens, UniProt Q8N884). Briefly: cGAS enzymatic assay (FP/TR-FRET detection of cGAMP). It is filed as biochemical. Also noted: The cGAS assay was used to screen 100,000 compounds with full-length human cGAS; 6xHis; made in house. A digest of the protocol:
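Homogeneous enzymatic assay with FP and TR-FRET read-outs, full-length enzyme at 30 nM. IC50 from dose-response under basal conditions (5 mM MgCl2, 100 μM ATP/GTP), also with 0.2 mM Mn added; values reported as letter bins from A (<100 nM) to E (>10 μM).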
(In general: TR-FRET usually uses a lanthanide donor and a delayed reading to cut background.)

Entries after “also recorded” stand apart in the source; their conditions may differ. Like-named read-outs stand apart in the source and are kept apart here.

cGAS, sequence (Q8N884 whole entry): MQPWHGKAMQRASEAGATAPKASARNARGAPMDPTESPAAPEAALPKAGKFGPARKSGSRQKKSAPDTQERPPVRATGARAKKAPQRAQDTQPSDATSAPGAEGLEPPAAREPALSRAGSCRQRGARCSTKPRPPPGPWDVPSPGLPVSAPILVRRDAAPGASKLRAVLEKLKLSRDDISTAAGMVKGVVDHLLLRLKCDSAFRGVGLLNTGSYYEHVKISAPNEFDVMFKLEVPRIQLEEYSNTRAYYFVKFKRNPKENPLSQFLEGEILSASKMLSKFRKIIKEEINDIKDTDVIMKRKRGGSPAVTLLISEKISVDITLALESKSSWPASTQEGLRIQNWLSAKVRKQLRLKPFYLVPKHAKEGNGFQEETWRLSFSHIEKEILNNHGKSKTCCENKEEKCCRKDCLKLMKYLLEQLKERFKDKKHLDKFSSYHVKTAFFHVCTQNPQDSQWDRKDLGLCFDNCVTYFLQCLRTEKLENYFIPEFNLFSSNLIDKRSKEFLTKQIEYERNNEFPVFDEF

For `Cc1nc(N2C[C@@H](CC(=O)Nc3ccncc3)C[C@H]2C(=O)O)c2oc3ccccc3c2n1` [Compound 28, (2S,4R)-1-(2-methylbenzofuro[3,2-d]pyrimidin-4-yl)-4-(2-oxo-2-(pyridin-4-ylamino)ethyl)pyrrolidine-2-carboxylic acid], the IC50 in assay [1] was 20 µM; in assay [2] it was 9 µM; in assay [3] (Homo sapiens, read-out: Cellular IFNβ ELISA IC50), 13 µM; on cGAS (100 μM ATP/GTP, read-out: Enzymatic FP Std (100 μM ATP/GTP) IC50), 0.356 µM; on cGAS (1 mM ATP/GTP, read-out: Enzymatic FP Physiological (1 mM ATP/GTP) IC50) it was 3.25 µM; on cGAS (cGAS (30 nM), read-out: Inhibition cGAS) it was 0.1 to 0.5 µM. The “inhibition of IFNβ expression” value in assay [3] is on record as “reproducible inhibition; also recorded: inhibit IFNβ expression”. In addition, the “specificity: DNA- versus cGAMP-stimulated cells” value in assay [3] was “specific for DNA-stimulated cells; also recorded: more potent inhibition of cells stimulated with DNA than those stimulated with cGAMP”. Also, the “ISG expression (fold decrease @ 200 μM)” value in assay [4] is 2-3×.

The values above are taken from US20220073532A1, “INHIBITORS OF CGAS ACTIVITY AS THERAPEUTIC AGENTS” (BELLBROOK LABS, LLC, priority 2019, published 2022).
